In one experiment the target is human Src (Homo sapiens, UniProt P12931). As to the kind of experiment: C1: c-Src filter assay. The format is biochemical. The conditions noted are these: 5 ng human Src, 1.0 μM unlabeled ATP, poly(Glu,Tyr) 4:1, 25° C., 10 minutes; read-out: C1: c-SRC filter pIC50 (converted). Here is the method:
The in vitro inhibition of c-Src kinase was assessed using the glass-fiber filter technology as described by Davies, S. P. et al., Biochem J. (2000), 351; p. 95-105.
In the glass-fiber filter technology the activity of the kinase is measured using an appropriate substrate that is incubated with the aforementioned kinase protein in the presence of (^33P) radiolabeled ATP. (^33P) Phosporylation of the substrate is subsequently measured as radioactivity bound on a glassfiber-filter.
In an alternative filter based assay the final kinase activity was assessed using a phosphostorage screen instead of scintilation counting.
In this assay the Src kinase reaction is performed at 25° C. for 10 minutes in a 96-well microtiterplate. The 25 μl reaction volume contains 8 mM MOPS pH 7.0, 20 mM Mg-acetate, 0.2 mM Na2EDTA, 0.5 mM MnCl2, 1.0 μM unlabeled ATP, 0.2 μCi AT^33P, 20 ng poly(Glu,Tyr) 4:1 and 5 ng human Src.
The reaction is stopped by adding 5 μl of a 3% phosphoric acid solution. 5 μl of the reaction mixture is then spotted onto a Filtermat A filter (Wallac) and washed 3 times for 5 min. in 75 mM phosphoric acid and 1 time for 5 min. in methanol prior to drying and quantification on the Typhoon (Amersham) using a phosphostorage screen.
human Fyn, sequence (P06241 whole entry): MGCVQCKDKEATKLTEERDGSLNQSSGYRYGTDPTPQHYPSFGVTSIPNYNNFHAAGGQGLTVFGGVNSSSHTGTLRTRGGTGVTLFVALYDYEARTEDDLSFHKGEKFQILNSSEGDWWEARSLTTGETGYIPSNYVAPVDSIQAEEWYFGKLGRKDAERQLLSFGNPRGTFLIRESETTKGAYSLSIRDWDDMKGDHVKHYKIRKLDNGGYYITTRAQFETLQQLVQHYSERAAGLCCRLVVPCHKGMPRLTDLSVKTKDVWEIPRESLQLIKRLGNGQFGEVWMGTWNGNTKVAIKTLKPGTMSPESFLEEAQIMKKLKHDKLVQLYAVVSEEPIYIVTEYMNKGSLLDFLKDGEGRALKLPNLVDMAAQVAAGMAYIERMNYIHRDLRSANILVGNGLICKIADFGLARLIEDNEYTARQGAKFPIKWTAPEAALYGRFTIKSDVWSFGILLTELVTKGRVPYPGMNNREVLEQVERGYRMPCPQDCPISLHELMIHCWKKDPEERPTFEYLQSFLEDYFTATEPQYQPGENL
human Src, sequence (P12931 whole entry): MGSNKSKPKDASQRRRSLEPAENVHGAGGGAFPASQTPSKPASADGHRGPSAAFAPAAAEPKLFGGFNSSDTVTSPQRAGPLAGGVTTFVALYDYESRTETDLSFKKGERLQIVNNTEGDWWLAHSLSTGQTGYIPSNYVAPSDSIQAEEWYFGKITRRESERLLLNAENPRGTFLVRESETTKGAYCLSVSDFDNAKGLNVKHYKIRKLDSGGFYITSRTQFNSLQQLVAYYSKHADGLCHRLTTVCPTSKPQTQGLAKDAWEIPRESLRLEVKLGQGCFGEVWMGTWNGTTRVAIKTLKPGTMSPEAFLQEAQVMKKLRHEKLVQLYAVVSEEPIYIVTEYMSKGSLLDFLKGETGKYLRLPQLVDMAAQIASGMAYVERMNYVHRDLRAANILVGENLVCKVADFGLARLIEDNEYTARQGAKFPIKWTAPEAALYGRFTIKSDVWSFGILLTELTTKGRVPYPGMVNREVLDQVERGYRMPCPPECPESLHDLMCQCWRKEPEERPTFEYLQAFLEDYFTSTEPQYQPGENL
With `COc1cc2ncnc3c2cc1OCCCCCNCc1ccc2c(c1N3)OCO2` [Compound A9], the IC50 is 2.29 µM.
The same measure, in the same setting: then `COc1cc2ncnc3c2cc1OCCCCCNCc1ccc2c(c1N3)OCO2` [Compound A10], with 2.57 µM; and `CN1CCCCCOc2cc3c(ncnc3cc2O)Nc2c(ccc3c2OCO3)C1` [Compound A12], with above 10 µM; and `COc1cc2ncnc3c2cc1OCCCN(S(=O)(=O)c1ccccc1[N+](=O)[O-])CCN(C)Cc1ccc2c(c1N3)OCO2` [Compound A20], with 0.186 µM.
Still for that read-out and setting: then `COc1cc2ncnc3c2cc1OCCCNCCN(C)Cc1ccc2c(c1N3)OCO2` [Compound A22], with 3.24 µM.
The same measure, in the same setting: then `CN1CCNCCCOc2cc3c(ncnc3cc2O)Nc2c(ccc3c2OCO3)C1` [Compound A23], with above 10 µM.
On to `CN1CCN(C(=O)OC(C)(C)C)CCCOc2cc3c(ncnc3cc2O)Nc2c(ccc3c2OCO3)C1` [Compound A24], for which the IC50 is above 10 µM.
For `CN1CCN(CCCOc2cc3ncnc4c3cc2OCCCN(C(=O)OC(C)(C)C)CCN(C)Cc2ccc3c(c2N4)OCO3)CC1` [Compound A27], the IC50 is 2.24 µM.
Still for that read-out and setting: as for `COCCOCCOc1cc2ncnc3c2cc1OCCCN(C(=O)OC(C)(C)C)CCN(C)Cc1ccc2c(c1N3)OCO2` [Compound A28], the figure is above 10 µM; as for `CN(CCO)CCCOc1cc2ncnc3c2cc1OCCCN(C(=O)OC(C)(C)C)CCN(C)Cc1ccc2c(c1N3)OCO2` [Compound A29], 2.63 µM.
The same measure, in the same setting: then `COc1cc2ncnc3c2cc1OCCCNC(=O)[C@H](C)N(C)Cc1ccc2c(c1N3)OCO2` [Compound A38], with 3.31 µM.
The same measure, in the same setting: as for `C[C@H]1C(=O)NCCCOc2cc3c(ncnc3cc2O)Nc2c(ccc3c2OCO3)CN1C` [Compound A40], the figure is above 10 µM; as for `CN1CCCCCOc2cc3c(ncnc3cc2OCCCN)Nc2c(ccc3c2OCO3)C1` [Compound A57], 0.933 µM; as for `CN1CCCCCOc2cc3c(ncnc3cc2OC[C@@H](O)CN2CCCCC2)Nc2c(ccc3c2OCO3)C1` [Compound B1], 0.537 µM.
As for `COCCOc1cc2ncnc3c2cc1OCCCCCN(C)Cc1ccc2c(c1N3)OCO2` [Compound B2], the IC50 was 1.1 µM.

Another experiment addresses human Fyn (Homo sapiens, UniProt P06241). Put plainly: C2: Fyn kinase assay. The format is biochemical. The settings on record: 5 ng human Fyn, 1.0 μM unlabeled ATP, poly(Glu,Tyr) 4:1, 25° C., 10 minutes. Here is the method:
In this assay the Fyn kinase reaction is performed at 25° C. for 10 minutes in a 96-well microtiterplate. The 25 μl reaction volume contains 8 mM MOPS pH 7.0, 20 mM Mg-acetate, 0.2 mM Na2EDTA, 0.5 mM MnCl2, 1.0 μM unlabeled ATP, 0.2 μCi AT^33P, 20 ng poly(Glu,Tyr) 4:1 and 5 ng human Fyn.
The reaction is stopped by adding 5 μl of a 3% phosphoric acid solution. 5 μl of the reaction mixture is then spotted onto a Filtermat A filter (Wallac) and washed 3 times for 5 min. in 75 mM phosphoric acid and 1 time for 5 min. in methanol prior to drying and scintillation counting.
For the molecule `COc1cc2ncnc3c2cc1OCCCCCNCc1ccc2c(c1N3)OCO2` [Compound A10], the “C2: Fyn kinase pIC50” value is recorded as above 6.

The experiment is the same for the next values; noted with them: 5 ng human Fyn, 1.0 μM unlabeled ATP, poly(Glu,Tyr) 4:1, 25° C., 10 minutes; read-out: C2: Fyn kinase pIC50 (converted).
For the molecule `COc1cc2ncnc3c2cc1OCCCCCN(C(=O)OCc1ccccc1)Cc1ccc2c(c1N3)OCO2` [Compound A8], the IC50 is 0.204 µM.
Take `COc1cc2ncnc3c2cc1OCCCCCNCc1ccc2c(c1N3)OCO2` [Compound A9]: the IC50 is below 1 µM.
`COc1cc2ncnc3c2cc1OCCCCCN(C)Cc1ccc2c(c1N3)OCO2` [Compound A11]: the IC50 is 0.0182 µM.
The same measure, in the same setting: as for `CN1CCCCCOc2cc3c(ncnc3cc2O)Nc2c(ccc3c2OCO3)C1` [Compound A12], the figure is 0.0347 µM; as for `COc1cc2ncnc3c2cc1OCCCN(S(=O)(=O)c1ccccc1[N+](=O)[O-])CCN(C)Cc1ccc2c(c1N3)OCO2` [Compound A20], 0.00692 µM; as for `COc1cc2ncnc3c2cc1OCCCNCCN(C)Cc1ccc2c(c1N3)OCO2` [Compound A22], 0.0398 µM.
On to `CN1CCNCCCOc2cc3c(ncnc3cc2O)Nc2c(ccc3c2OCO3)C1` [Compound A23], for which the IC50 is above 1 µM.
Turning to `CN1CCN(C(=O)OC(C)(C)C)CCCOc2cc3c(ncnc3cc2O)Nc2c(ccc3c2OCO3)C1` [Compound A24], the IC50 is above 1 µM.
With `CN1CCN(C(=O)OC(C)(C)C)CCCOc2cc3c(ncnc3cc2OC(=O)OC(C)(C)C)Nc2c(ccc3c2OCO3)C1` [Compound A25], the IC50 was above 1 µM.
With `CN1CCN(CCCOc2cc3ncnc4c3cc2OCCCN(C(=O)OC(C)(C)C)CCN(C)Cc2ccc3c(c2N4)OCO3)CC1` [Compound A27], the IC50 is 0.0224 µM.
Same read-out and setting: then `COCCOCCOc1cc2ncnc3c2cc1OCCCN(C(=O)OC(C)(C)C)CCN(C)Cc1ccc2c(c1N3)OCO2` [Compound A28], with below 1 µM.
Same read-out and setting: as for `CN(CCO)CCCOc1cc2ncnc3c2cc1OCCCN(C(=O)OC(C)(C)C)CCN(C)Cc1ccc2c(c1N3)OCO2` [Compound A29], the figure is 0.0437 µM; as for `COc1cc2ncnc3c2cc1OCCCNC(=O)[C@H](C)N(C)Cc1ccc2c(c1N3)OCO2` [Compound A38], 0.245 µM; as for `C[C@H]1C(=O)NCCCOc2cc3c(ncnc3cc2O)Nc2c(ccc3c2OCO3)CN1C` [Compound A40], above 1 µM.
Still for that read-out and setting: then `C[C@H]1C(=O)NCCCOc2cc3c(ncnc3cc2OCCCN2CCOCC2)Nc2c(ccc3c2OCO3)CN1C` [Compound A42], with 0.0646 µM.
Consider `CN1CCN(C(=O)OC(C)(C)C)CCCOc2cc3c(ncnc3cc2OCCCN2CCC(S(C)(=O)=O)CC2)Nc2c(ccc3c2OCO3)C1` [Compound A54], for which the IC50 was 0.0692 µM.
The same measure, in the same setting: then `CN1CCCCCOc2cc3c(ncnc3cc2OCCCN)Nc2c(ccc3c2OCO3)C1` [Compound A57], with 0.0182 µM; and `COc1cc2ncnc3c2cc1OCCCCCN(C(=O)OCc1ccccc1)Cc1cc(Oc2ccc(C)nc2)c2c(c1N3)OCO2` [Compound A68], with above 1 µM; and `CN1CCCCCOc2cc3c(ncnc3cc2OC[C@@H](O)CN2CCCCC2)Nc2c(ccc3c2OCO3)C1` [Compound B1], with below 0.001 µM.
As to `COCCOc1cc2ncnc3c2cc1OCCCCCN(C)Cc1ccc2c(c1N3)OCO2` [Compound B2], the IC50 is 0.00776 µM.
Same read-out and setting: then `C[C@H]1C(=O)NCCCOc2cc3c(ncnc3cc2OCCCN2CCOCC2)Nc2c(ccc3c2OCO3)CN1C` [Compound B6], with 0.038 µM; and `COCCOCCOc1cc2ncnc3c2cc1OCCCNC(=O)[C@H](C)N(C)Cc1ccc2c(c1N3)OCO2` [Compound B7], with 0.0912 µM.
In the case of `CN1CCNCCCOc2cc3c(ncnc3cc2OCCCN2CCC(S(C)(=O)=O)CC2)Nc2c(ccc3c2OCO3)C1` [Compound B14], the IC50 is 0.0195 µM.
The same measure, in the same setting: then `Brc1cc2c(c3c1OCO3)Nc1ncnc3cc(OCCCN4CCCC4)c(cc13)OCCCCCNC2` [Compound B27], with below 1 µM; and `CN1CCN(CCCOc2cc3ncnc4c3cc2OCCCCCNCc2cc(Br)c3c(c2N4)OCO3)CC1` [Compound B28], with below 1 µM; and `CCOC(CCOc1cc2ncnc3c2cc1OCCCCCN(C)Cc1ccc2c(c1N3)OCO2)OCC` [Compound B32], with 0.038 µM.
With `COCCOc1cc2ncnc3c2cc1OCCCCCNCc1ccc2c(c1N3)OCO2` [Compound B33], the IC50 is 0.0132 µM.
Still for that read-out and setting: as for `C[C@H]1C(=O)NCCCOc2cc3c(ncnc3cc2OCCCN2CCS(=O)(=O)CC2)Nc2c(ccc3c2OCO3)CN1C` [Compound B36], the figure is 0.038 µM; as for `COCCNCCCOc1cc2ncnc3c2cc1OCCCNC(=O)[C@H](C)N(C)Cc1ccc2c(c1N3)OCO2` [Compound B38], 0.138 µM.
On the same count and under the same terms, as for `C[C@H]1C(=O)NCCCOc2cc3c(ncnc3cc2OCCCNCCO)Nc2c(ccc3c2OCO3)CN1C` [Compound B39], the figure is 0.129 µM; as for `C[C@H]1C(=O)NCCCOc2cc3c(ncnc3cc2OCCCN(C)CCO)Nc2c(ccc3c2OCO3)CN1C` [Compound B40], 0.214 µM.
Take `COCCOc1cc2ncnc3c2cc1OCCCNC(=O)[C@H](C)N(C)Cc1ccc2c(c1N3)OCO2` [Compound B41]: the IC50 was 0.0813 µM.
On the same count and under the same terms, as for `C[C@H]1C(=O)NCCCOc2cc3c(ncnc3cc2OC[C@@H]2CO2)Nc2c(ccc3c2OCO3)CN1C` [Compound B42], the figure is 0.282 µM; as for `Oc1cc2ncnc3c2cc1OCCCCCNCc1cc(Br)c2c(c1N3)OCO2` [Compound B44], 0.209 µM.
Regarding `CN1CCCCCOc2cc3c(ncnc3cc2O)Nc2c(cc(Br)c3c2OCO3)C1` [Compound B48], the IC50 is 0.0891 µM.
For the molecule `COc1cc2ncnc3c2cc1OCCCCN(C(=O)OCc1ccccc1)CCc1ccc2c(c1N3)OCO2` [Compound B50], the IC50 is above 1 µM.
On the same count and under the same terms, as for `COc1cc2ncnc3c2cc1OCCCCN(C)CCc1ccc2c(c1N3)OCO2` [Compound B53], the figure is 0.11 µM; as for `C[C@H]1C(=O)NCCCOc2cc3c(ncnc3cc2OCCCN2CCN(CCO)CC2)Nc2c(ccc3c2OCO3)CN1C` [Compound B54], 0.0513 µM; as for `C[C@H]1C(=O)NCCCOc2cc3c(ncnc3cc2OCCCN2CCC(CCS(C)(=O)=O)CC2)Nc2c(ccc3c2OCO3)CN1C` [Compound B55], 0.115 µM.
The same measure, in the same setting: then `C[C@H]1C(=O)NCCCOc2cc3c(ncnc3cc2OCCCN2CCC(S(C)(=O)=O)CC2)Nc2c(ccc3c2OCO3)CN1C` [Compound B56], with 0.0851 µM; and `C[C@H]1C(=O)NCCCOc2cc3c(ncnc3cc2OCCCN2CCN(C)CC2)Nc2c(ccc3c2OCO3)CN1C` [Compound B57], with 0.0263 µM.
As to `C[C@H]1C(=O)NCCCOc2cc3c(ncnc3cc2OCCCN2CCN(C)CC2)Nc2c(ccc3c2OCO3)CN1C` [Compound B58], the IC50 was 0.0331 µM.
Regarding `C[C@H]1C(=O)NCCCOc2cc3c(ncnc3cc2OCCCN2CCN(C(=O)CCS(C)(=O)=O)CC2)Nc2c(ccc3c2OCO3)CN1C` [Compound B59], the IC50 was 0.0427 µM.
For `CC(=O)NCCN1CCN(CCCOc2cc3ncnc4c3cc2OCCCNC(=O)[C@H](C)N(C)Cc2ccc3c(c2N4)OCO3)CC1` [Compound B60], the IC50 is 0.0372 µM.
Regarding `C[C@H]1C(=O)NCCCOc2cc3c(ncnc3cc2OC[C@@H](O)CN2CCC(O)CC2)Nc2c(ccc3c2OCO3)CN1C` [Compound B62], the IC50 was 0.2 µM.
In the case of `CN1CCCCCOc2cc3c(ncnc3cc2OCCCN2CCN(CCO)CC2)Nc2c(cc(Br)c3c2OCO3)C1` [Compound B66], the IC50 was below 1 µM.
For `CN(CCO)CCCOc1cc2ncnc3c2cc1OCCCCCN(C)Cc1cc(Br)c2c(c1N3)OCO2` [Compound B72], the IC50 was below 1 µM.
Regarding `COc1cc2ncnc3c2cc1OCCCNC(=O)[C@H](C)N(C)Cc1cc(Cl)c2c(c1N3)OCO2` [Compound B74], the IC50 was 0.0692 µM.
The same measure, in the same setting: then `COc1cc2ncnc3c2cc1OCCCN(C)C(=O)[C@H](C)N(C)Cc1cc(Cl)c2c(c1N3)OCO2` [Compound B76], with 0.316 µM.
For `COc1cc2ncnc3c2cc1OCCCN(C)C(=O)[C@H](C)N(C)Cc1ccc2c(c1N3)OCO2` [Compound B78], the IC50 was above 1 µM.

The values above are taken from US8492377B2, “MTKI quinazoline derivatives” (Janssen Pharmaceutica NV, priority 2006, dated 2013).
